Reference: patent US12016860B2, “Combination therapies with Cbl-b inhibitor compounds” (Nurix Therapeutics, Inc., priority 2021, dated 2024)

Assays:
[1] = tested on: BT549 (BRCA wild type) cells; test: Caspase 3/7 apoptosis Incucyte assay with olaparib, BT549; assay type: cell-based; settings: 1 μM compound 23, 0.05 μM olaparib, vs 0.05% DMSO, combination also vs single agents p<0.0001
Description: (§1) BT549 (BRCA wild type) (A) and DoTc 4510 (BRCA2 mutated) (B) cells were seeded in duplicate into tissue culture treated black-sided, clear-bottom 96-well plates at 5,000^cells/well and allowed to adhere and establish for 24 h. Cells were treated with indicated concentrations of DMSO, compound 23, or Olaparib (FIGS. 13A and 13B) either alone or in combination and were labelled with 1× Essen Bioscience IncuCyte® Caspase-3/7 Green Reagent (final concentration 5 μM). Treated plates were imaged every 2 hours for 72 hours with the IncuCyte® S3 Live-Cell Analysis System. At each timepoint, one image per well was taken in both brightfield and FITC channels on the IncuCyte® S3 Live-Cell Analysis System. Images were analyzed for number of green objects per mm^2 using the IncuCyte S3 v2017A software.
Using a caspase 3/7 apoptosis Incucyte assay, the effect of compound 23, PARPi and the combination of compound 23, and PARPi on tumor cell apoptosis was assessed in both BRCA wild type and mutated tumor cell lines in vitro.

[2] = tested on: DoTc 4510 (BRCA2 mutated) cells; test: Caspase 3/7 apoptosis Incucyte assay with olaparib, DoTc 4510; assay type: cell-based; settings: vs 0.05% DMSO, combination also vs single agents p<0.0001
Description: as §1

BT549 tumor cell line = test: Caspase 3/7 apoptosis Incucyte assay with paclitaxel, BT549; assay type: cell-based; settings: 0.1 μM compound 23, 0.002 μM paclitaxel, vs 0.05% DMSO, combination also vs single agents p<0.0001
Description: as §1, with “BT549” for “BT549 (BRCA wild type) (A) and DoTc 4510 (BRCA2 mutated) (B)”, “5,000 ^cells/well” for “5,000^cells/well”, “with” for “with indicated concentrations of”, “Paclitaxel” for “Olaparib (FIGS. 13A and 13B)”, “48” for “72”
Using a caspase 3/7 apoptosis Incucyte® assay, the effect of compound 23, paclitaxel and the combination of compound 23 and paclitaxel on tumor cell apoptosis was assessed in the BT549 tumor cell line (a mammary gland carcinoma) in vitro.

Raji cells = test: Raji human non-Hodgkin's lymphoma model in SCID mice, combination with rituximab
Description: Female CB17 mice with severe combined immunodeficiency (SCID) were intravenously (IV) injected in the tail vein with Raji cells on Day 0 and treated from Day 5 to Day 37 by administration of either: vehicle (0.5% methylcellulose, 0.2% Polysorbate 80 in deionized water+1 eq HCl) daily, orally (PO) or compound 23 at 30 mg/kg daily, PO. Anti-CD20 antibody (rituximab) at 20 mg/kg was intraperitoneally (IP) administered on Day 5, 10, and 15, either alone or in combination with compound 23 at 30 mg/kg daily, PO.

Compound: O=C(c1cc(Cc2n[nH]c(=O)c3ccccc23)ccc1F)N1CCN(C(=O)C2CC2)CC1 [olaparib, reference compound]
- tumor cell apoptosis (caspase 3/7) [1]: did not undergo a significant increase in apoptosis
- tumor cell apoptosis (caspase 3/7) [2]: did not significantly increase tumor cell apoptosis

Compound: CC(=O)O[C@H]1C(=O)[C@@]2(C)[C@H]([C@H](OC(=O)c3ccccc3)[C@]3(O)C[C@H](OC(=O)[C@H](O)[C@@H](NC(=O)c4ccccc4)c4ccccc4)C(C)=C1C3(C)C)[C@]1(OC(C)=O)CO[C@@H]1C[C@@H]2O [paclitaxel, reference compound]
- tumor cell apoptosis (caspase 3/7) (BT549 tumor cell line): did not undergo a significant increase in apoptosis

Compound: rituximab [reference compound]
- survival compared to untreated mice (Raji cells; compound 23 30 mg/kg daily PO, rituximab 20 mg/kg IP Day 5, 10, 15, p<0.0001): significantly higher
- survival compared to mice treated with the combination of compound 23 and rituximab (Raji cells; p<0.0001): significantly lower
